Experimental data published in patent publication US11000033B2, “Ketone or oxime compound, and herbicide” (NISSAN CHEMICAL CORPORATION, priority 2014, dated 2021).

What was measured:
Format in all cases: in vivo
[1] = test system: Echinochloa crus-galli var. crus-galli; assay: Test Example 5: herbicidal effect by foliage application, plastic box (symbol H); conditions: 320 g/ha, 3 weeks after application
Procedure, shortened: (§1)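 Leaf-applied emulsion, water-diluted to a preset herbicide dose, on two-week-old seedlings raised in a 25° C. to 30° C. greenhouse; injury rated at 3 weeks using earlier criteria.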

[2] = test system: Echinochloa crus-galli var. crus-galli; assay: Test Example 4: herbicidal effect by soil treatment (symbol H); conditions: application herbicide amount 320 g/ha
Procedure, shortened: (§2)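 Seeds were sown in sterilized diluvial soil, covered with about 1.5 cm of soil, and the soil surface was sprayed with a water-diluted emulsion of the compound at a predetermined rate. Plants grew in a greenhouse at 25° C. to 30° C.; effects were scored visually 3 weeks after application.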

Galium spurium [3] = assay: Test Example 5: herbicidal effect by foliage application, plastic box (symbol Q); conditions: 320 g/ha, 3 weeks after application
Procedure, shortened: as §1

Leptochloa chinensis = assay: Test Example 3: herbicidal effect by foliage application, Wagner pot (symbol D); conditions: application herbicide amount 320 g/ha
Procedure, shortened: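 Herbicidal activity was rated three weeks after a foliar spray of diluted emulsion concentrate, applied at a predetermined dose to plants grown for 14 days from seed in waterlogged alluvial soil within a 25–30 °C greenhouse.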

Stellaria media [4] = assay: Test Example 5: herbicidal effect by foliage application, plastic box (symbol P); conditions: 320 g/ha, 3 weeks after application
Procedure, shortened: as §1

Monochoria vaginalis = assay: Test Example 1: herbicidal activity, application before weed generation in submerged conditions (symbol C); conditions: application herbicide amount 320 g/ha
Procedure, shortened: (§3)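 Steps: alluvial soil flooded to 4 cm; weed seeds sown together; rice seedlings (2.5 leaf) transplanted; diluted emulsion applied to water surface the same day as sowing; plants grown at 25–30 °C in greenhouse; herbicidal effect rated on a 0–5 scale at 3 weeks.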

Lolium multiflorum Lam. = assay: Test Example 4: herbicidal effect by soil treatment (symbol K); conditions: application herbicide amount 320 g/ha
Procedure, shortened: as §2

Scirpus juncoides = assay: Test Example 1: herbicidal activity, application before weed generation in submerged conditions (symbol B); conditions: application herbicide amount 320 g/ha
Procedure, shortened: as §3

Setaria viridis [5] = assay: Test Example 5: herbicidal effect by foliage application, plastic box (symbol G); conditions: 320 g/ha, 3 weeks after application
Procedure, shortened: as §1

Galium spurium [6] = assay: Test Example 4: herbicidal effect by soil treatment (symbol Q); conditions: application herbicide amount 320 g/ha
Procedure, shortened: as §2

Amaranthus retroflexus = assay: Test Example 4: herbicidal effect by soil treatment (symbol N); conditions: application herbicide amount 320 g/ha
Procedure, shortened: as §2

Apera spica-venti = assay: Test Example 4: herbicidal effect by soil treatment (symbol L); conditions: application herbicide amount 320 g/ha
Procedure, shortened: as §2

Setaria viridis [7] = assay: Test Example 4: herbicidal effect by soil treatment (symbol G); conditions: application herbicide amount 320 g/ha
Procedure, shortened: as §2

Alopecurus myosuroides = assay: Test Example 5: herbicidal effect by foliage application, plastic box (symbol J); conditions: 320 g/ha, 3 weeks after application
Procedure, shortened: as §1

corn = assay: Test Example 4: effect on crop by soil treatment (symbol c); conditions: application herbicide amount 320 g/ha
Procedure, shortened: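 Diluvial soil (sterilized) in boxes; seeds placed spot-wise alongside weed species; ~1.5 cm covering soil. Greenhouse, 25–30° C.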

rapeseed [8] = assay: Test Example 5: effect on crop by foliage application, plastic box (symbol g); conditions: 320 g/ha, 3 weeks after application
Procedure, shortened: (§4)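 Soil: sterilized diluvial. Container: plastic box, 21 × 13 cm, 7 cm deep. Sowing: spot-like, ~1.5 cm cover. Growth: greenhouse, 25° C. to 30° C.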

Stellaria media [9] = assay: Test Example 4: herbicidal effect by soil treatment (symbol P); conditions: application herbicide amount 320 g/ha
Procedure, shortened: as §2

wheat = assay: Test Example 5: effect on crop by foliage application, plastic box (symbol e); conditions: 320 g/ha, 3 weeks after application
Procedure, shortened: as §4

rapeseed [10] = assay: Test Example 4: effect on crop by soil treatment (symbol g); conditions: application herbicide amount 320 g/ha
Procedure, shortened: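 Crop seed is sown in spots together with several weed species in a box of sterilized diluvial soil. It is covered by about 1.5 cm of soil and kept in a greenhouse held between 25° C. and 30° C.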

SMILES	H: Echinochloa crus-galli var. crus-galli, herbicidal effect grade [1]	H (Echinochloa crus-galli var. crus-galli) herbicidal effect grade [2]	Q: Galium spurium, herbicidal effect grade (Galium spurium [3])	herbicidal effect on D (Leptochloa chinensis), grade 0-5 (Leptochloa chinensis)	P: Stellaria media, herbicidal effect grade (Stellaria media [4])	Herbicidal effect grade, C: Monochoria vaginalis (Monochoria vaginalis)	K (Lolium multiflorum Lam.) herbicidal effect grade (Lolium multiflorum Lam.)	Herbicidal effect grade, B: Scirpus juncoides (Scirpus juncoides)	G: Setaria viridis, herbicidal effect grade (Setaria viridis [5])	Q (Galium spurium) herbicidal effect grade (Galium spurium [6])	N (Amaranthus retroflexus) herbicidal effect grade (Amaranthus retroflexus)	L (Apera spica-venti) herbicidal effect grade (Apera spica-venti)	G (Setaria viridis) herbicidal effect grade (Setaria viridis [7])	J: Alopecurus myosuroides, herbicidal effect grade (Alopecurus myosuroides)	c (corn) effect on crop grade (corn)	g: rapeseed, effect on crop grade (rapeseed [8])	P (Stellaria media) herbicidal effect grade (Stellaria media [9])	e: wheat, effect on crop grade (wheat)	g (rapeseed) effect on crop grade (rapeseed [10])	also measured
CON=C(CC1CC1)CC1CC(O)=C(c2c(C)cc(C)cc2C)C1=O (stereo not drawn) [1-070]	3 (Herbicidal ratio of 40% or higher and lower than 70%)	4 (Herbicidal ratio of 70% or higher and lower than 90%)	2 (Herbicidal ratio of 20% or higher and lower than 40%)	4 (Herbicidal ratio of 70% or higher and lower than 90%)	0 (Herbicidal ratio of 5% or lower (almost no effect))	0 (Herbicidal ratio of 5% or lower (almost no effect))	5 (Herbicidal ratio of 90% or more (almost completely withered))	0 (Herbicidal ratio of 5% or lower (almost no effect))	5 (Herbicidal ratio of 90% or more (almost completely withered))	0 (Herbicidal ratio of 5% or lower (almost no effect))	0 (Herbicidal ratio of 5% or lower (almost no effect))	5 (Herbicidal ratio of 90% or more (almost completely withered))	4 (Herbicidal ratio of 70% or higher and lower than 90%)	5 (Herbicidal ratio of 90% or more (almost completely withered))	1 (Herbicidal ratio of 5% or higher and lower than 20%)	3 (Herbicidal ratio of 40% or higher and lower than 70%)	0 (Herbicidal ratio of 5% or lower (almost no effect))	0 (Herbicidal ratio of 5% or lower (almost no effect))	0 (Herbicidal ratio of 5% or lower (almost no effect))	
CON=C(C)CC1CC(OC(=O)COc2ccccc2[N+](=O)[O-])=C(c2c(C)cc(C)cc2C)C1=O (stereo not drawn) [1-071]	5 (Herbicidal ratio of 90% or more (almost completely withered))	5 (Herbicidal ratio of 90% or more (almost completely withered))	2 (Herbicidal ratio of 20% or higher and lower than 40%)	5 (Herbicidal ratio of 90% or more (almost completely withered))	0 (Herbicidal ratio of 5% or lower (almost no effect))	0 (Herbicidal ratio of 5% or lower (almost no effect))	5 (Herbicidal ratio of 90% or more (almost completely withered))	4 (Herbicidal ratio of 70% or higher and lower than 90%)	5 (Herbicidal ratio of 90% or more (almost completely withered))	0 (Herbicidal ratio of 5% or lower (almost no effect))	4 (Herbicidal ratio of 70% or higher and lower than 90%)	5 (Herbicidal ratio of 90% or more (almost completely withered))	5 (Herbicidal ratio of 90% or more (almost completely withered))	5 (Herbicidal ratio of 90% or more (almost completely withered))	4 (Herbicidal ratio of 70% or higher and lower than 90%)	4 (Herbicidal ratio of 70% or higher and lower than 90%)	0 (Herbicidal ratio of 5% or lower (almost no effect))	5 (Herbicidal ratio of 90% or more (almost completely withered))	4 (Herbicidal ratio of 70% or higher and lower than 90%)	
CON=C(C)CC1CC(OC(=O)COc2cccc(C#N)c2)=C(c2c(C)cc(C)cc2C)C1=O (stereo not drawn) [1-074]		5 (Herbicidal ratio of 90% or more (almost completely withered))		5 (Herbicidal ratio of 90% or more (almost completely withered))		4 (Herbicidal ratio of 70% or higher and lower than 90%)	5 (Herbicidal ratio of 90% or more (almost completely withered))	5 (Herbicidal ratio of 90% or more (almost completely withered))		0 (Herbicidal ratio of 5% or lower (almost no effect))	5 (Herbicidal ratio of 90% or more (almost completely withered))	5 (Herbicidal ratio of 90% or more (almost completely withered))	5 (Herbicidal ratio of 90% or more (almost completely withered))		4 (Herbicidal ratio of 70% or higher and lower than 90%)		0 (Herbicidal ratio of 5% or lower (almost no effect))		4 (Herbicidal ratio of 70% or higher and lower than 90%)	H: Echinochloa crus-galli var. crus-galli, herbicidal effect (criteria 0-5) [1]: 5 (Herbicidal ratio of 90% or more (almost completely withered)); Q: Galium spurium, herbicidal effect (criteria 0-5) (Galium spurium [3]): 1 (Herbicidal ratio of 5% or higher and lower than 20%); P: Stellaria media, herbicidal effect (criteria 0-5) (Stellaria media [4]): 1 (Herbicidal ratio of 5% or higher and lower than 20%); G: Setaria viridis, herbicidal effect (criteria 0-5) (Setaria viridis [5]): 5 (Herbicidal ratio of 90% or more (almost completely withered)); J: Alopecurus myosuroides, herbicidal effect (criteria 0-5) (Alopecurus myosuroides): 5 (Herbicidal ratio of 90% or more (almost completely withered)); g: rapeseed, effect on crop (criteria 0-5) (rapeseed [8]): 4 (Herbicidal ratio of 70% or higher and lower than 90%); e: wheat, effect on crop (criteria 0-5) (wheat): 5 (Herbicidal ratio of 90% or more (almost completely withered))
